Source: patent US8822441B2, “Ecdysterone synthesis derivative, preparation method and use thereof” (priority 2010, dated 2014)
Counter-ions that a name gives are not always drawn.

Tests used:
HepG2 cells = assay: in vitro glucose consumption in HepG2 cells (glucose oxidase method); type: cell-based; conditions: for Glucose consumption / Glucose consumption increased: HepG2 cells; for Glucose consumption: 24 h, x ± s, n = 8; for Glucose consumption increased: versus blank control group
Description: HepG2 cells with good growth state were selected, and were digested with trypsinase and EDTA (ethylene diamine tetraacetic acid) digestive juice. After digestion was complete, the resulting mixture was formulated with DMEM (Dulbecco's Modified Eagle Medium) having 10% Fetal bovine serum (FBS) into single cell suspension. The cells were seeded into 96 well plates, with 1*10^4 cells per well. Once the cell confluence reached 50%, the medium was changed to high glucose DMEM without serum, starvation cultured for 12 h. The cell supernatant was pipetted, and fresh high glucose DMEM with or without medications was added. The cells were divided into a blank control group, a 20-hydroxy-β-ecdysterone group, and a compound of formula I group. After culturing for 24 h, each group was tested for the change of glucose in the medium by using the glucose oxidase method.

normal mice = assay: level of blood glucose in normal mice; type: in vivo, Kunming mouse; conditions: for Blood glucose 3 d after dosing: 5th administration; for Blood glucose 3 d after dosing / Blood glucose 10 d after dosing: fasting 2 h, X ± S; for Blood glucose 10 d after dosing: 19th administration; for effects in lowering glucose in normal mice: 5 mg/kg
Description: 40 male mice with a body weight of 21±1.8 g (Kunming mouse: SPF grade, male, provided by laboratory animal centre of Sichuan Academy of Chinese Medicine Sciences) were grouped into 4 groups randomly, which are control group, 5 mg/kg of the compound of formula I group, 5 mg/kg of the sodium salt of the compound of formula I group, and 25 mg/kg of Glibenclamide (manufactured by Tianjin Pacific Chemical & Pharmaceutical Co., LTD) group. For the control group, distilled water was given, while for other groups, corresponding medicaments were given. The medicament was intragastrically administered in 0.2 ml/10 g of administration volume twice daily. The administration was continued for 19 times. On the 5th time and 19th time and after thoroughly fasting for 2 h, the blood glucose value for each mouse was tested by a Blood Glucose Meter, and the results were recorded as follows: […]

InsR protein = conditions: 1×10^−5 mol/L; cited from earlier work
PI3K and GLUT-4 proteins = conditions: 1×10^−5M, P<0.05; cited from earlier work
β-TC3 cells = conditions: cited from earlier work
[1] = dissolution experiment (solubility in water); type: physicochemical; conditions: for amount of water necessarily for completely dissolving this product (1 g): 1 g of product; for solubility in water relative to 20-hydroxy-β-ecdysterone: fold of that of 20-hydroxy-β-ecdysterone
[2] = 25 mg/kg intragastrically twice daily, *P<0.05 vs control
[3] = 5 mg/kg intragastrically twice daily
[4] = 5 mg/kg intragastrically twice daily, *P<0.05 vs control

Compound | Glucose consumption (HepG2 cells; 2 × 10^−7 M) [mM] | Glucose consumption increased (HepG2 cells; 2 × 10^−7 M) [mM] | Glucose consumption (HepG2 cells; 2 × 10^−8 M) [mM] | Glucose consumption increased (HepG2 cells; 2 × 10^−8 M) [mM] | Glucose consumption (HepG2 cells; 2 × 10^−9 M) [mM] | effects in lowering glucose in normal mice (normal mice) | Blood glucose 3 d after dosing (normal mice; [3]) [mmol/L] | Blood glucose 10 d after dosing (normal mice; [4]) | amount of water necessarily for completely dissolving this product (1 g) [1] [mL] | solubility in water relative to 20-hydroxy-β-ecdysterone [1] [fold] | also measured
CC(C)(O)CC[C@@H](O)[C@](C)(O)[C@H]1CC[C@@]2(O)C3=CC(=O)[C@@H]4C[C@@H](O)[C@@H](O)C[C@]4(C)[C@H]3CC[C@]12C [20-hydroxy-β-ecdysterone, reference compound] | 1.45 ± 0.28 | 0.13 | 1.38 ± 0.11 | 0.06 | 1.30 ± 0.23 |  |  |  |  |  | increase of the glucose consumption in HepG2 cells (HepG2 cells; concentration 2×10^−7˜2×10^−8 M): below 15%; effect for lowering glucose in HepG2 cells (HepG2 cells; concentration 2×10^−9 M): no effect
COc1ccc(Cl)cc1C(=O)NCCc1ccc(S(=O)(=O)NC(=O)NC2CCCCC2)cc1 [Glibenclamide, reference compound] |  |  |  |  |  |  |  |  |  |  | Blood glucose 3 d after dosing (normal mice; [2]): 9.3 ± 0.9* mmol/L; Blood glucose 10 d after dosing (normal mice; [2]): 9.9 ± 0.9* mmol/L
CC(C)(O)CC[C@@H](O)[C@](C)(O)[C@H]1CC[C@@]2(O)C3=CC(=O)[C@@H]4C[C@@H](O)[C@@H](O)C[C@]4(C)[C@H]3CC[C@]12C [ecdysterone] |  |  |  |  |  |  |  |  |  |  | expression of InsR protein in IR HepG2 cells (InsR protein): significantly increases; expression of PI3K and GLUT-4 proteins in insulin resistant HepG2 cells (PI3K and GLUT-4 proteins): increases; stimulating insulin secretion of β-TC3 cells (β-TC3 cells): does not have the action of stimulating insulin secretion
CC(C)(O)CC[C@H]1OP(=O)(O)O[C@]1(C)[C@H]1CC[C@@]2(O)C3=CC(=O)[C@@H]4C[C@@H](O)[C@@H](O)C[C@]4(C)C3CC[C@]12C (some centres unmarked) [sodium salt of the compound of formula I] |  |  |  |  |  | have the effects in lowering glucose | 10.2 ± 1.9 | 9.8 ± 1.4* mmol/L | 2.5 | 50 | 
CC(C)(O)CC[C@H]1OP(=O)(O)O[C@]1(C)[C@H]1CC[C@@]2(O)C3=CC(=O)[C@@H]4C[C@@H](O)[C@@H](O)C[C@]4(C)C3CC[C@]12C (some centres unmarked) [the compound of formula I] | 6.96 ± 0.23 | 5.64 | 6.51 ± 0.12 | 5.19 | 6.46 ± 0.19 | have the effects in lowering glucose | 10.4 ± 1.7 | 9.1 ± 2.3* mmol/L | 12 | 10 | Glucose consumption increased (HepG2 cells; 2 × 10^−9 M): 5.14 mM; increase of the glucose consumption in HepG2 cells (HepG2 cells; concentration range 2×10^−7˜2×10^−9 M): above 500%
